Measurements published in patent US8128914B2, “Topical compositions containing CIS-6-nonenol and its derivatives and methods for treating skin” (Avon Products, Inc, priority 2008, dated 2012).

Test system: Metallothionein 2A (MT2A) mRNA
Experiment: Stimulation of Metallothioneins: MT2A mRNA in normal human dermal fibroblasts (QuantiGene multiplex branched DNA assay)
Assay type: cell-based
Conditions: 24 hours, vs ethanol vehicle control, p<0.05
Method: Normal human dermal fibroblasts were cultured in 96 well tissue culture treated plates, containing appropriate culture medium. Stock solution of cis-6 nonenol was made in ethanol. Cells were treated with test material or ethanol vehicle control diluted in growth medium for 24 hours in a humidified 37° C. incubator with 10% CO2. After incubation, growth medium from each plate was removed and 100 μl of lysis buffer was added to the wells and placed in 37° C. incubator with 10% CO2 for 30 minutes. At the end of incubation, the cells were collected in freezer plates and placed in −80° C. freezer, until analysis. Changes in mRNA for Metallothionein 2A (MT2A) after treatment were analysed using Panomics' QuantiGene® multiplex assay that employs a branched DNA technology. Percent increase in mRNA for MT2A was calculated by comparing the test results to that of the vehicle control. […] All results reported are statistically significant at p<0.05.

SMILES: CC/C=C\CCCCCO [Cis-6-nonenol, cis-6-nonenol]
- stimulation in mRNA levels for Metallothionein 2A (0.001% cis-6-nonenol): 97%
- stimulation in mRNA levels for Metallothionein 2A (0.01% cis-6-nonenol): 96%
